Laboratory results from patent publication US20070004660A1, “Synergistic Modulation of Flt3 Kinase Using Alkylquinolines and Alkylquinazolines” (priority 2005, published 2007).

Each compound was assayed against T1, isolated kinase domain of the human FLT3 receptor (a.a. 571-993) (Homo sapiens, UniProt P36888) (assay: FLT3 fluorescence polarization kinase assay). Settings: 150 uM ATP; uncertainty ±10%.
T1 construct: human FLT3 receptor (a.a. 571-993)
T1 sequence (P36888 571-993): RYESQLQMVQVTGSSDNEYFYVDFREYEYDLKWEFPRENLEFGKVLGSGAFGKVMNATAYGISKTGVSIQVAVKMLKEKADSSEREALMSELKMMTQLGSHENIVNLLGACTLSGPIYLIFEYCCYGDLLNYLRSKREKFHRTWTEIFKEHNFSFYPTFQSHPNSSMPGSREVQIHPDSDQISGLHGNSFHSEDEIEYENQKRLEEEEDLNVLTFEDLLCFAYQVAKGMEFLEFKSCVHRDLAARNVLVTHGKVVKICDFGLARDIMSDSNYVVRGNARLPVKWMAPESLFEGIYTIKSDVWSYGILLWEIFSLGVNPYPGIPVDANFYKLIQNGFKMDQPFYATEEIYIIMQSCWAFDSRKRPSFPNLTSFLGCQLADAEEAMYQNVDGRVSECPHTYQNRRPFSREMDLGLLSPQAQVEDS
Format: biochemical

Compound	IC50 [nM]
CN1CCN(c2ccc3c(C4CCN(C(=O)Nc5ccc(N6CCCC6)cc5)CC4)ncnc3c2)CC1 [Example 159, 4-[7-(4-Methyl-piperazin-1-yl)-quinazolin-4-yl]-piperidine-1-carboxylic acid (4-pyrrolidin-1-yl-phenyl)-amide]	7
CN1CCN(c2ccc3c(C4CCN(C(=O)Nc5ccc(N6CCCC6)nc5)CC4)ncnc3c2)CC1 [Example 160, 4-[7-(4-Methyl-piperazin-1-yl)-quinazolin-4-yl]-piperidine-1-carboxylic acid (6-pyrrolidin-1-yl-pyridin-3-yl)-amide]	14
CC(=O)N1CCC[C@H]1COc1ccc2c(C3CCN(C(=O)Nc4ccc(N5CCCC5)cc4)CC3)ncnc2c1 [Example 162, (S)-4-[7-(1-Acetyl-pyrrolidin-2-ylmethoxy)-quinazolin-4-yl]-piperidine-1-carboxylic acid (4-pyrrolidin-1-yl-phenyl)-amide]	32
CC(=O)N1CCC(COc2ccc3c(C4CCN(C(=O)Nc5ccc(N6CCCC6)cc5)CC4)ncnc3c2)CC1 [Example 163, 4-[7-(1-Acetyl-piperidin-4-ylmethoxy)-quinazolin-4-yl]-piperidine-1-carboxylic acid (4-pyrrolidin-1-yl-phenyl)-amide]	11
CC(=O)N1CCN(c2ccc3c(C4CCN(C(=O)Nc5ccc(N6CCCC6)cc5)CC4)ncnc3c2)CC1 [Example 166, 4-[7-(4-Acetyl-piperazin-1-yl)-quinazolin-4-yl]-piperidine-1-carboxylic acid (4-pyrrolidin-1-yl-phenyl)-amide]	9
O=C(Nc1ccc(N2CCCC2)cc1)N1CCC(c2ncnc3cc(OCCO)ccc23)CC1 [Example 169, 4-[7-(2-Hydroxy-ethoxy)-quinazolin-4-yl]-piperidine-1-carboxylic acid (4-pyrrolidin-1-yl-phenyl)-amide]	32
CC(=O)N1CC(Oc2ccc3c(C4CCN(C(=O)Nc5ccc(N6CCCC6)cc5)CC4)ncnc3c2)C1 [Example 170, 4-[7-(1-Acetyl-azetidin-3-yloxy)-quinazolin-4-yl]-piperidine-1-carboxylic acid (4-pyrrolidin-1-yl-phenyl)-amide]	290
O=C(COc1ccc2c(C3CCN(C(=O)Nc4ccc(N5CCCC5)cc4)CC3)ncnc2c1)N1CCOCC1 [Example 172, 4-[7-(2-Morpholin-4-yl-2-oxo-ethoxy)-quinazolin-4-yl]-piperidine-1-carboxylic acid (4-pyrrolidin-1-yl-phenyl)-amide]	542
O=C(Nc1ccc(N2CCCC2)cc1)N1CCC(c2ncnc3cc(N4CCC4)ccc23)CC1 [Example 173, 4-(7-Azetidin-1-yl-quinazolin-4-yl)-piperidine-1-carboxylic acid (4-pyrrolidin-1-yl-phenyl)-amide]	1
O=C(Nc1ccc(N2CCCC2)cc1)N1CCC(c2ncnc3cc(Oc4cccnc4)ccc23)CC1 [Example 174, 4-[7-(Pyridin-3-yloxy)-quinazolin-4-yl]-piperidine-1-carboxylic acid (4-pyrrolidin-1-yl-phenyl)-amide]	42
O=C(Nc1ccc(N2CCCC2)cc1)N1CCC(c2ncnc3cc(NCCO)ccc23)CC1 [Example 175, 4-[7-(2-Hydroxy-ethylamino)-quinazolin-4-yl]-piperidine-1-carboxylic acid (4-pyrrolidin-1-yl-phenyl)-amide]	1
O=C(Nc1ccc(N2CCCC2)cc1)N1CCC(c2ncnc3cc(N4CCOC4=O)ccc23)CC1 [Example 176, 4-[7-(2-Oxo-oxazolidin-3-yl)-quinazolin-4-yl]-piperidine-1-carboxylic acid (4-pyrrolidin-1-yl-phenyl)-amide]	102

Second part, the compound after the results:

IC50 [nM]	Compound
0.5	CN1CCN(CCOc2ccc3c(C4CCN(C(=O)Nc5ccc(N6CCCC6)cc5)CC4)ncnc3c2)CC1 [Example 157, 4-{7-[2-(4-Methyl-piperazin-1-yl)-ethoxy]-quinazolin-4-yl}-piperidine-1-carboxylic acid (4-pyrrolidin-1-yl-phenyl)-amide]
8	CN1CCN(CCCOc2ccc3c(C4CCN(C(=O)Nc5ccc(N6CCCC6)cc5)CC4)ncnc3c2)CC1 [Example 158, 4-{7-[3-(4-Methyl-piperazin-1-yl)-propoxy]-quinazolin-4-yl}-piperidine-1-carboxylic acid (4-pyrrolidin-1-yl-phenyl)-amide]
1	O=C(Nc1ccc(N2CCCC2)cc1)N1CCC(c2ncnc3cc(OCCCN4CCC[C@H]4CO)ccc23)CC1 [Example 161, (S)-4-{7-[3-(2-Hydroxymethyl-pyrrolidin-1-yl)-propoxy]-quinazolin-4-yl}-piperidine-1-carboxylic acid (4-pyrrolidin-1-yl-phenyl)-amide]
25	CS(=O)(=O)N1CCN(CCCOc2ccc3c(C4CCN(C(=O)Nc5ccc(N6CCCC6)cc5)CC4)ncnc3c2)CC1 [Example 164, 4-{7-[3-(4-Methanesulfonyl-piperazin-1-yl)-propoxy]-quinazolin-4-yl}-piperidine-1-carboxylic acid (4-pyrrolidin-1-yl-phenyl)-amide]
15	CN(C)C(=O)N1CCN(CCCOc2ccc3c(C4CCN(C(=O)Nc5ccc(N6CCCC6)cc5)CC4)ncnc3c2)CC1 [Example 165, 4-(3-{4-[1-(4-Pyrrolidin-1-yl-phenylcarbamoyl)-piperidin-4-yl]-quinazolin-7-yloxy}-propyl)-piperazine-1-carboxylic acid dimethylamide]
44	CS(=O)(=O)N1CCN(c2ccc3c(C4CCN(C(=O)Nc5ccc(N6CCCC6)cc5)CC4)ncnc3c2)CC1 [Example 167, 4-[7-(4-Methanesulfonyl-piperazin-1-yl)-quinazolin-4-yl]-piperidine-1-carboxylic acid (4-pyrrolidin-1-yl-phenyl)-amide]
130	CS(=O)(=O)N1CC(Oc2ccc3c(C4CCN(C(=O)Nc5ccc(N6CCCC6)cc5)CC4)ncnc3c2)C1 [Example 171, 4-[7-(1-Methanesulfonyl-azetidin-3-yloxy)-quinazolin-4-yl]-piperidine-1-carboxylic acid (4-pyrrolidin-1-yl-phenyl)-amide]
